Data on 11 compounds can be found in patent publication US6384070B2, “Indole derivatives useful as endothelin receptor antagonists” (Pfizer Inc., priority 1996, dated 2002).

The target of data set [1] is T1, cloned human ETA receptor (Homo sapiens, UniProt P25101).
T1 sequence (P25101 21-427): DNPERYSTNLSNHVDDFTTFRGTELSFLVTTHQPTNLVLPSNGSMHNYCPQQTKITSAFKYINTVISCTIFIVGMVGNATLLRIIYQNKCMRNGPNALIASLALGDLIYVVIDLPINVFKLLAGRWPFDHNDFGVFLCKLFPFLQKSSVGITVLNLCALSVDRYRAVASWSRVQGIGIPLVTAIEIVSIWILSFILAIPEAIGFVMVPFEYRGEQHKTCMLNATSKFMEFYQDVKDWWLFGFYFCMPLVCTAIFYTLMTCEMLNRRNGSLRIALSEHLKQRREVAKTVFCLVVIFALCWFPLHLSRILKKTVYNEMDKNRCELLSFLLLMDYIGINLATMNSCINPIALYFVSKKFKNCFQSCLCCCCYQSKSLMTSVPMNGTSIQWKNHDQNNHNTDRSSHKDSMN
Put plainly: Test A binding assay: competition with 125I-ET-1, binding to ETA receptors. The conditions noted are these: [125I]Tyr13 ET-1 displacement, 37° C., 2 hours. As for the experimental part: Competition between test compounds and ^125I-ET-1 binding to human endothelin receptors is determined as follows.
25 ul of a 30 pM solution of [^125I]Tyr^13 ET-1 (specific activity 2,200 Ci/mM) is mixed with 25 μl samples of test compound (final concentrations in the range 0.1 nM-50.000 nM). 200 μl of a solution containing cloned human ETA receptor (0.75 pmoles receptor protein/ml). 50 mM Tris, 0.5 mM CaCl2, 0.1% human serum albumen. 0.1% bacitracin. 0.05% Tween 20, pH 7.4 is added. The solution is mixed at 37° C. for 2 hours. After the incubation, the unbound ligand is separated from receptor bound ligand by filtration with a Brandel cell harvester, followed by three washes of buffer. Filter papers are counted for radioactivity, and the IC50 (the concentration of test compound at which 50% of the radio-labelled compound is unbound) determined for the concentration range tested.

In the next data set the test system is neointimal formation. The conditions noted are these: S. Douglas et al. Circ Res, 75, 1994; cited from earlier work.

Consider `COc1cc(C)ccc1S(=O)(=O)NC(=O)C(c1ccc2c(c1)OCO2)c1cn(C)c2cc(C(=O)O)ccc12` (centres unmarked) [Example 17, 3-{1-(1,3-benzodioxol-5-yl)-2-[(2-methoxy-4-methylphenyl)sulfonamido]-2-oxoethyl}-1-methyl-1H-6-indolecarboxylic acid], for which the 50% inhibitory concentration (IC50) (usually the concentration that gives 50% inhibition) in data set [1] is below 500 nM.
On the same count and under the same terms, the same measure for `COc1cc(C)ccc1S(=O)(=O)NC(=O)C(c1ccc2c(c1)OCO2)c1cn(C)c2cc(CO)ccc12` (centres unmarked) [Example 65, 3-{1-(1,3-Benzodioxol-5-yl)-2-[(2-methoxy-4-methylphenyl)sulfonamido]-2-oxoethyl}-6-(hydroxymethyl)-1-methyl-1H-indole]: below 500 nM.
Consider `Cn1cc(C(C(=O)O)c2ccc3c(c2)OCO3)c2cc(Br)ccc21` (centres unmarked) [Example 68, 2-(1,3-Benzodioxol-5-yl)-2-(5-bromo-1-methyl-1H-3-indolyl)acetic acid], for which the melting point (commonly the temperature, or range, at which the solid turns liquid) lay within 191 to 193 °C.
Same read-out and setting: the same measure for `COc1cc(C)ccc1S(=O)(=O)NC(=O)C(c1ccc2c(c1)OCO2)c1cn(C)c2ccc(Br)cc12` (centres unmarked) [Example 79, 3-{1-(1,3-Benzodioxol-5-yl)-2-[(2-methoxy-4-methylphenyl)sulfonamido]-2-oxoethyl}-5-bromo-1-methyl-1H-indole]: 145 to 150 °C.
Turning to `COc1cc(C)ccc1S(=O)(=O)NC(=O)C(c1ccc2c(c1)OCO2)c1cn(C)c2cc(F)ccc12` (centres unmarked) [Example 83], the 50% inhibitory concentration (IC50) in data set [1] was below 500 nM.
For `COc1cc(C)ccc1S(=O)(=O)NC(=O)C(c1ccc2c(c1)OCO2)c1cn(C)c2cc(Br)ccc12` (centres unmarked) [Example 85, 3-{1-(1,3-benzodioxol-5-yl)-2-[(2-methoxy-4-methylphenyl)sulfonamido]-2-oxoethyl}-6-bromo-1-methyl-1H-indole], the melting point is 145 to 150 °C (dec.).
Same read-out and setting: the same measure for `COc1cc(C)ccc1S(=O)(=O)NC(=O)C(c1cc(OC)c2c(c1)OCO2)c1cn(C)c2cc(Br)ccc12` (centres unmarked) [Example 92, 6-Bromo-3-{1-(7-methoxy-1,3-benzodioxol-5-yl)-2-[(2-methoxy-4-methylphenyl)sulfonamido]-2-oxoethyl}-1-methyl-1H-indole]: 235 °C (dec.); for `Cc1ccc(S(=O)(=O)NC(=O)C(c2cc3c(cc2Cl)OCO3)c2cn(C)c3cc(CO)ccc23)cc1` (centres unmarked) [Example 99, 3-{1-(6-Chloro-1,3-benzodioxol-5-yl)-2-[(4-methylphenyl)sulfonamido]-2-oxoethyl}-6-(hydroxymethyl)-1-methyl-1H-indole]: 207 to 209 °C.
Compound `COc1cc(C)ccc1S(=O)(=O)NC(=O)C(c1ccc2c(c1)OCO2)c1cn(C)c2cc(C(C)=O)ccc12` (centres unmarked) [Example 101, 6-Acetyl-3-{1-(1,3-benzodioxol-5-yl)-2-[(2-methoxy-4-methylphenyl)sulfonamido]-2-oxoethyl}-1-methyl-1H-indole] gave an IC50 in data set [1] below 500 nM.
The same measure, in the same setting: the same measure for `COCCn1cc(C(C(=O)NS(=O)(=O)c2ccc(C)cc2OC)c2ccc3c(c2)OCO3)c2ccc(C(N)=O)cc21` (centres unmarked) [Example 109, 3-{1-(1,3-benzodioxol-5-yl)-2-[(4-methyl-2-methoxyphenyl)sulfonamido]-2-oxoethyl}-1-(2-methoxyethyl)-1H-6-indolecarboxamide]: below 500 nM.
As for `CCCOc1ccc2c(c1)[C@@H](c1ccc(OC)cc1OCC(=O)O)[C@H](C(=O)O)[C@H]2c1ccc2c(c1)OCO2` [SB-209670], the “reduction in neointimal formation relative to control animals” value in the data set on neointimal formation was 50%.
